Reference: article PMC8752837, “Structural basis of BAK activation in mitochondrial apoptosis initiation” (Nature Communications, 2022)

Experiments:
GST-BAK = molecular target: T1, GST-BAK (Homo sapiens, UniProt Q16611); assay: Competitive fluorescence polarization assay (displacement of BID BH3 SAHB-F); assay type: binding; settings: displacement of 10 nM BID BH3 SAHB-fluorescein from 1 µM GST-BAK; peptide 500−0.2 µM; 60 min RT; mean ± SD, n = 9 experiments; read-out: IC50 FP
T1 construct: made in house
T1 sequence (Q16611 1-211): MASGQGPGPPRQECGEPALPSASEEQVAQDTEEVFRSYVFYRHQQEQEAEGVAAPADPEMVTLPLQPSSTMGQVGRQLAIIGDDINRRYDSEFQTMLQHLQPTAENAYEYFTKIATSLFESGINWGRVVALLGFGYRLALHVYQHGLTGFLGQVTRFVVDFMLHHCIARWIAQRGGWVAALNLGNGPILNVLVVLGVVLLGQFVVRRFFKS
Excerpt: We also tested the monosubstituted peptides in competitive fluorescence polarization (FP) binding assays, which measure displacement from GST-BAK of BID BH3 stabilized alpha helix of BCL-2 proteins (SAHB) C-terminally tagged with fluorescein and thus informs on peptide binding affinity.
We carried out fluorescence polarization assays, measuring the displacement of the fluorescent peptide BID BH3 SAHB-F from GST-BAK, in 384-well Greiner black polystyrene plates with flat bottom (Sigma-Aldrich). Master mix consisted of 50 mM Tris-HCl pH 7.5, 50 mM KCl, 0.1 mg/mL BSA, 2 mM DTT, 0.005% Tween-20, 10 nM BID BH3 SAHB-F, and 1 µM GST-BAK. We pin transferred peptides using Biomek FX (Beckman Coulter Life Sciences, IN) to achieve final concentration of 500−0.2 µM in 20 µL final volume. We gently centrifuged plates to remove air bubbles for 1 min at 1000 rpm, and incubated them for 60 min at RT. […] Free peptide controls in each plate consisted of only BID BH3 SAHB-F and bound peptide controls containing BID BH3 SAHB-F + GST-BAK. We derived Z’-values using the equation [1 − 3(stdev^L + stdev^H)]/(average^H − average^L), where L is the free peptide control and H is the bound peptide control. […] We processed and visualized data using the software Robust Investigation of Screening Experiments (RISE) developed in house in the Pipeline Pilot platform (Accelrys, v.8.5.0). We performed at least three independent dose-response experiments for each peptide. We estimated IC50 values in RISE and GraphPad Prism v.8.0a.

Human BAK-∆TM-His6 (BAK) = molecular target: T2, Human BAK-∆TM-His6 (BAK) (Homo sapiens, UniProt Q16611); assay: Liposome permeabilization assay (ANTS/DPX dye release from LUVs): activation of WT BAK by BH3 peptides;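 for AUC for Experiment-2 (Mean): traces normalized between buffer minimum and 3% CHAPS maximum fluorescence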;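 for AUC for Experiment-3 (Mean): traces normalized between buffer minimum and 3% CHAPS maximum fluorescence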; assay type: biochemical; set-up: AUC for Experiment-2 (Mean) / AUC for Experiment-3 (Mean) / AUC for Experiment-1 (Mean):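 traces normalized between buffer minimum and 3% CHAPS maximum fluorescence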; settings: for AUC for Experiment-1 (Mean) / AUC for Experiment-2 (Mean) / AUC for Experiment-3 (Mean): AUC 0-88 mins of liposome permeabilization; for AUC for Experiment-1 (Mean): Experiment-1, mean of N replicates; for AUC for Experiment-2 (Mean): Experiment-2, mean of N replicates; for AUC for Experiment-3 (Mean): Experiment-3, mean of N replicates; for EC50: Fig. 4e, AUC vs peptide dose (Suppl. Fig. 6b), n = 2 experiments each of n = 3 technical replicates, read-out: EC50 LP; for EC50 / direct BAK activation compared to WT BID BH3: 50 nM BAK; for direct BAK activation compared to WT BID BH3: liposome permeabilization, Fig. 4c, e
T2 construct: C-terminus truncated recombinant human BAK containing C-terminal 6× histidine tag (MEAS-BAK); made in house; host or cells: E. coli T7 Express pLac I/Y
T2 sequence (Q16611 1-186 limits assumed): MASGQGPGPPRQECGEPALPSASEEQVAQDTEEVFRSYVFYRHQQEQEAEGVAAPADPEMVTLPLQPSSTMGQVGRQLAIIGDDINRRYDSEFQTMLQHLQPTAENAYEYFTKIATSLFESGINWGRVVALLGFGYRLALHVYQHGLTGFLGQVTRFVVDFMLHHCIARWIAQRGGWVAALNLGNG
Method: We performed liposome permeabilization assays as previously described[43]–[46]. […] We mixed the lipid film in ANTS/DPX solution by vortexing and sonication (~15 min) followed by extrusion through polycarbonate membrane of 2 μm pore size (Avanti Polar lipids) to generate homogenous large unilamellar vesicles (LUVs). We separated LUVs from free ANTS/DPX by S500 size exclusion chromatography and stored them at 4 °C in the dark. We prepared peptide and protein dilutions in 96-well black flat bottom plates (Costar) kept on ice. […] We quantified liposome permabilization by integrating area under curve (AUC) of normalized traces based on the Simpson’s equation, and analyzed that data in Excel and GraphPad Prism. AUC measurements reflect the kinetic and extent of liposome permeabilization and provide quantitative means for comparison between different experimental conditions (e.g., BAK mutants with gross or partial variation in activity).

Substance	IC50 (GST-BAK) [µM]	AUC for Experiment-1 (Mean) (Human BAK-∆TM-His6 (BAK); 1 μM peptide + 50 nM BAK)	AUC for Experiment-2 (Mean) (Human BAK-∆TM-His6 (BAK); 1 μM peptide + 50 nM BAK)	AUC for Experiment-3 (Mean) (Human BAK-∆TM-His6 (BAK); 1 μM peptide + 50 nM BAK)	AUC for Experiment-1 (Mean) (Human BAK-∆TM-His6 (BAK); 50 μM peptide + 50 nM BAK)	AUC for Experiment-2 (Mean) (Human BAK-∆TM-His6 (BAK); 50 μM peptide + 50 nM BAK)	AUC for Experiment-3 (Mean) (Human BAK-∆TM-His6 (BAK); 50 μM peptide + 50 nM BAK)	EC50 (Human BAK-∆TM-His6 (BAK)) [µM]	direct BAK activation compared to WT BID BH3 (Human BAK-∆TM-His6 (BAK))
Ac-EDIIRNIARHLAQVGDSWDRSI-NH2 [W(4)]	11.5 ± 7.5	16.565	21.49	16.942	21.822	26.263	21.192	0.264 ± 0.0091	gain in direct BAK activation compared to WT BID BH3
Ac-EDIIRNIARHLAQVGDSYDRSI-NH2 [Y(4)]	6.9 ± 5	22.669	26.226	23.05	21.941	27.175	24.539	0.213 ± 0.0082	gain in direct BAK activation compared to WT BID BH3
